The values that follow come from patent US20240368133A1, “Compounds for the Treatment of Pain, in Particular, Neuropathic Pain, and/or Other Diseases or Disorders that are Associated with AT2R and/or AT2R Mediated Signaling” (Confo Therapeutics N.V., priority 2021, published 2024).

Structures are written as SMILES. Converted amounts (≈) assume the structure as drawn. Where two headings read alike, the source gives them in different places.

A short description of one data set: Kinetic solubility. The data set is classed as physicochemical. To be noted: kinetic from dmso stock. Here is the method:
Starting from a 20 mM stock solution of test compound in 100% DMSO, dilutions were prepared to a theoretical concentration of 400 μM in duplicates in phosphate-buffered saline pH 7.4 (PBS) (138 mM NaCl, 2.7 mM KCl, 10 mM K-phosphate) and 100 mM citrate buffer pH 3.0 with 2% final DMSO.
The experimental compound dilutions in PBS and citrate buffer were further allowed to equilibrate at 25° C. on a thermostatic orbital shaker for two hours and then centrifuged at 14000 rpm, 5 min and filtered through HTS filter plates using a vacuum manifold. The filtrates of test compounds were diluted 2-fold with acetonitrile with 2% DMSO before measuring. In parallel, compound dilutions in 50% acetonitrile/buffer were prepared to the theoretical concentrations of 0 μM (blank), 100 μM, 200 μM and 400 μM with 2% final DMSO to generate calibration curves.
Ondansetron (Sigma Aldrich USA, cat #03639) was used as a reference to control proper assay performance. 200 μl of each sample were transferred to a 96-well plate and solubility was measured in a 200-550 nm range (in steps of 5 nm). The measurements were performed using a Spectra Max Plus reader in UV-Vis mode. Acquisition and analysis of the data were performed using SoftMax Pro v.5.4 (Molecular Devices) and Excel 2010 data analysis software. Proper absorbance wavelengths for calculations were selected for each compound manually based on absorbance maximums (absolute absorbance unit values for the minimum and maximum concentration points within 0-3 OD range). Each of the final datasets was additionally visually evaluated by the operator and goodness of fit (R2) is calculated for each calibration curve.

In a further data set the target is CYP2C19 (Homo sapiens (Human), UniProt P33261). Put plainly: CYP inhibition, CYP2C19. The data set is classed as in vitro ADME. To be noted: test compound at 10 μM, read-out: % Inhibition (PIN) 2C19. The procedure: (§1) The aim of this assay is to determine the inhibitory potential of a test compound. A major concern for drug-drug-interaction is cytochrome P450 inhibition. Reversible CYP inhibition was determined in human liver microsomes using specific probe substrates for human cytochrome P450 isoenzymes CYP1A2, 2C9, 2C19, 2D6 and 3A4. […]
Sequence of CYP2C19 (P33261 whole entry): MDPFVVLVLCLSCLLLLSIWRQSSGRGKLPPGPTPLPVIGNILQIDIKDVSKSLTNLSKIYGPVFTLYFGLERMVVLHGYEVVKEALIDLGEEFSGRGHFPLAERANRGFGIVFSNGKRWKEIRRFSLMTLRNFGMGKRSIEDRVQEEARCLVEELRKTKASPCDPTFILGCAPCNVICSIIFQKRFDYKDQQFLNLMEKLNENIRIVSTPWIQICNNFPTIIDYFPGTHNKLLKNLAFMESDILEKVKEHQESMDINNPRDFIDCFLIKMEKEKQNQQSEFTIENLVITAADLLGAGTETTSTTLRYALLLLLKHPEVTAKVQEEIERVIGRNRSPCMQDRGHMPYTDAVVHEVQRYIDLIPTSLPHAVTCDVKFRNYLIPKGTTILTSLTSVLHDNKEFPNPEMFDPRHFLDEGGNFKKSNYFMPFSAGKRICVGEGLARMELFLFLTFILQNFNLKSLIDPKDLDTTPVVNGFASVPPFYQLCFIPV
(§2) A 10 mM stock solution of test compound is prepared in methanol. This stock is further serially diluted 1:3 in methanol and then added to mixture containing 50 mM potassium phosphate buffer pH7.4, human liver microsomes (BD Gentest) and probe substrate. After pre-warming 5 min at 37° C., the reaction is started by adding co-factor mix ([…] glucose-6-phosphate, 1.7 mg/mL NADP, 6 U/mL of glucose-6-phosphate dehydrogenase), resulting in a final concentration of test compound at 10 μM (2% MeOH).
(§3) Final concentrations of co-factor mix components are as follows: 1.56 mg/mL glucose-6-phosphate, 0.34 mg/mL NADP, 1.2 U/mL of glucose-6-phosphate dehydrogenase.
(§4) After incubation at 37° C., the reaction (aliquot of 50 μL) is terminated with 150 μL CH3CN:MeOH (2:1) solution with internal standard (warfarin for 2C9, diclofenac for all other tested isoforms). Samples are centrifuged and the supernatant fractions analyzed by LC-MS/MS.
(§5) The instrument responses (ratio of test compound and internal standard peak areas) are referenced to those for solvent controls (assumed as 100%) in order to determine the percentage reduction in probe metabolism. Percent of control activity vs. concentration plots are generated and fitted using GraphPad Prism software to generate IC50.

For a further data set, the target named is CYP2D6 (Homo sapiens (Human), UniProt P10635). Put plainly: CYP inhibition, CYP2D6. The data set is classed as in vitro ADME. The settings on record: test compound at 10 μM, read-out: % Inhibition (PIN) 2D6. The procedure:
as §1, §2, §3, §4, §5

The next data set has as its target CYP3A4 (Homo sapiens (Human), UniProt P08684). Nature of the data set: CYP inhibition, CYP3A4. The data set is classed as in vitro ADME. To be noted: human; test compound at 10 μM, probe not marked; read-out: % Inhibition (PIN) 3A4. The procedure:
The aim of this assay is to determine the inhibitory potential of a test compound. A major concern for drug-drug-interaction is cytochrome P450 inhibition. Reversible CYP inhibition was determined in human liver microsomes using specific probe substrates for human cytochrome P450 isoenzymes CYP1A2, 2C9, 2C19, 2D6 and 3A4.
The potential for CYP450 inhibition was assessed by performing in vitro inhibition studies using fluorogenic CYP450 substrates with the corresponding CYP450 enzymes and NADPH regeneration system (Vivid CYP450 Screening Kits) with some minor changes to the manufacturer's protocols. The fluorescent signal produced from reaction is directly proportional to the cytochrome P450 activity. In the cases when tested compounds interfere with the CYP450 enzyme-substrate reaction, the fluorescent signal decreases. In brief, the tested compounds were first dissolved in DMSO at 100× concentration (1 mM), and diluted in buffer to 2.5× concentration (25 μM). Then the 2.5× compound solutions were mixed with the Master Pre-mix consisting of Human CYP450+Oxidoreductase and NADP+Regeneration System (glucose-6-phosphate and glucose-6-phosphate dehydrogenase). After 10 minutes pre-incubation, the enzymatic reaction was initiated by the addition of a mix of NADPH and the appropriate CYP450 substrates. The plate was incubated for the desired reaction time (25 min for CYP1A2, CYP2C9, CYP2D6, and CYP3A4, 60 min for CYP2C19) after which Stop Reagent was added and fluorescence measured using SpectraMax Paradigm Multi-Mode Microplate Reader. All test points were performed in quadruplicates at concentration 10 μM (1% DMSO).
as §2, §3, §4, §5

[1] abbreviates: aqueous buffer, kinetic solubility, phosphate-buffered saline pH 7.4, 2% DMSO, 25° C., two hours, read-out: PBS solubility, pH 7.4.
Setting [2] is: citrate buffer, 25 °C, pH 3, aqueous buffer, read-out: Citrate buffer solubility, pH 3.0.

Sequence of CYP2D6 (P10635 whole entry): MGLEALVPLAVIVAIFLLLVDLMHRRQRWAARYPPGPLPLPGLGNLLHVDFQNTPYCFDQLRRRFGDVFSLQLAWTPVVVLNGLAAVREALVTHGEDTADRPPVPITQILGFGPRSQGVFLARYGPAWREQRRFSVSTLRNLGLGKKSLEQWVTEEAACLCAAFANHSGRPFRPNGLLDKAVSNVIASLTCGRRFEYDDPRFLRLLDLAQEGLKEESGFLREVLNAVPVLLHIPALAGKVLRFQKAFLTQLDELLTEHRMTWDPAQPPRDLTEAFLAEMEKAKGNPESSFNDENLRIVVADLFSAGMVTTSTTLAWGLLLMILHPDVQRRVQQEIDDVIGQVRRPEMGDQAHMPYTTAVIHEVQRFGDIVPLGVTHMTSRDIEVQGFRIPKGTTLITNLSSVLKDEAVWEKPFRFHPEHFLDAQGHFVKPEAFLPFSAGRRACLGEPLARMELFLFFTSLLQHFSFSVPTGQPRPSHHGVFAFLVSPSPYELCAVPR
Sequence of CYP3A4 (P08684 whole entry): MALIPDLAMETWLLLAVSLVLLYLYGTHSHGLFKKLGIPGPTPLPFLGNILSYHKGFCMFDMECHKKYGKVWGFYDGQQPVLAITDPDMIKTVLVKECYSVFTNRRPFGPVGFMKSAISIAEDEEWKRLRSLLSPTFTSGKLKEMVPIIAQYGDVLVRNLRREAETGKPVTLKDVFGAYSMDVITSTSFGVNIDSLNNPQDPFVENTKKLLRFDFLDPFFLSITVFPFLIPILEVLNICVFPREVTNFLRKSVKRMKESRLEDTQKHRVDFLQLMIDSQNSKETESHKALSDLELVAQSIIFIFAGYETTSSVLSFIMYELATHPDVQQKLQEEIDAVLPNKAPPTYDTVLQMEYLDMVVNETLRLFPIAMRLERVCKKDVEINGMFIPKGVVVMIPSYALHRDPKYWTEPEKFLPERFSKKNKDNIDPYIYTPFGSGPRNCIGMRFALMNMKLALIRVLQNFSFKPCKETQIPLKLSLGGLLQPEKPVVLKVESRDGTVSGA

With `CC(C)Cc1cc(F)c(-c2nn[nH]n2)c(N2CCN(Cc3cccnn3)[C@@H](C)C2)c1` [Compound A-174, 3-[[(2S)-4-[3-fluoro-5-isobutyl-2-(2H-tetrazol-5-yl)phenyl]-2-methyl-piperazin-1-yl]methyl]pyridazine], the results for the solubility at 2 h in the data set “Kinetic solubility” (setting [1]) and in “Kinetic solubility” (setting [2]) were 385 µM (≈ 158 µg/mL) and 356 µM (≈ 146 µg/mL), respectively. The inhibition (usually the share of the control response that was lost under treatment) at 10 µM worked out at 26.5% on CYP2C19, 9.35% at CYP2D6 and 36% on CYP3A4.
On the same counts, the results for `CCCCNC(=O)NS(=O)(=O)c1ccc(C(F)(F)F)cc1N1CCN(Cc2nc3ccccc3n2C)CC1` [Compound A-10, 1-butyl-3-[2-[4-[(1-methylbenzimidazol-2-yl)methyl]piperazin-1-yl]-4-(trifluoromethyl)phenyl]sulfonyl-urea] are at least 400 µM, at least 400 µM, 38.6%, 14.8% and 54.2%.
For the molecule `CC(C)Cc1ccc(-c2nn[nH]n2)c(N2CCN(Cc3nc4ccccc4c(=O)[nH]3)CC2)c1` [Compound A-31, 2-[[4-[5-isobutyl-2-(2H-tetrazol-5-yl)phenyl]piperazin-1-yl]methyl]-3H-quinazolin-4-one], the solubility – broadly, the dissolved amount per volume that the medium holds – at 2 h in the data set “Kinetic solubility” (setting [1]) was at least 400 µM; in the data set “Kinetic solubility” (setting [2]), 40 µM (≈ 17.8 µg/mL). In addition, the inhibition at 10 µM turned out to be 73% on CYP2C19, 23.1% on CYP2D6 and 94.6% on CYP3A4.
Taken in the same sequence, the figures for `CC(C)Cc1cc(F)c(-c2nn[nH]n2)c(N2CCN(Cc3cccnn3)C(C)C2)c1` (centres unmarked) [Compound A-173, 3-[[4-[3-fluoro-5-isobutyl-2-(2H-tetrazol-5-yl)phenyl]-2-methyl-piperazin-1-yl]methyl]pyridazine] were 376 µM (≈ 154 µg/mL), 356 µM (≈ 146 µg/mL), 8.93%, 16.3% and 29.4%.
